Measurements as given in paper PMC4926433, “Isoquercitrin Esters with Mono- or Dicarboxylic Acids: Enzymatic Preparation and Properties” (International Journal of Molecular Sciences, 2016).
Where “and” joins values, the source holds several entries; their conditions need not be identical. Equal entries are not always repeated. Where two headings read alike, the source gives them in different places. Marks after values point to notes of the source that are not given here.

How the values were obtained:
[1] = Folin–Ciocalteau reduction (FCR) assay, reducing capacity; assay type: biochemical; details: gallic acid equivalents, mean ± SE
Description: Folin-Ciocalteu assay, commonly known as the total phenols assay, determines a sample reducing capacity. FCR contains heteropolyphosphotunstate-molybdates, which are reduced in aqueous milieu at pH ≈ 10 to blue species, presumably (PMoW11O40)^4- [29]. […] This is probably related to high hydrophobicity of these derivatives. Reducing capacity was evaluated using Folin-Ciocalteau reagent with minor modifications as described previously.

[2] = tested on: rat liver microsomal membranes; experiment: Inhibition of microsomal lipid peroxidation induced by tert-butyl hydroperoxide (TBARS); assay type: biochemical; details: for IC50: male rat liver microsomes, tert-butylhydroperoxide 1 mM, 37 °C, 30 min, TBARS, mean ± SE, read-out: Lpx (IC50; µM)
Description: Lipid peroxidation is a type of oxidative degradation of lipids caused by free radicals in cell membranes, resulting in cell damage. The most notable initiators of this chain reaction in living cells are reactive oxygen species (ROS), such as OH· and HO2·, which combine with a hydrogen atom to make water and a fatty acid radical. We used tert-butyl hydroperoxide, a relatively stable organic peroxide, as initiator of peroxidation of rat liver microsomal membranes. The inhibition of this reaction depends not only on the free radical scavenging capacity, but also on the capacity of these compounds to interact with and penetrate lipid bilayers. Isoquercitrin derivatives differed considerably in their capacity to inhibit the peroxidation of microsomal membranes. […] A similar trend, e.g., improving the activity in medium chain derivatives with subsequent drop for longer chain esters, was reported for anti-proliferative activity of IQ monocarboxylic acid esters on the growth of tumoral Caco2 cells, and also for the inhibition of tyrosinase activity.
Pooled microsomes from male rat livers (M9066, Sigma-Aldrich, Prague, Czech Republic) were washed five times using centrifugation and phosphate-buffered saline (PBS, 13,500 rpm, 5 min, 4 °C) to remove sucrose. In addition, 400 µL of the diluted microsomal suspension (0.625 mg protein/mL in PBS), the compounds tested in 50 µL of dimethyl sulfoxide (DMSO, final concentration 5–2000 µM) and 50 µL of tert-butylhydroperoxide in PBS (final concentration 1 mM) were mixed and incubated at 37 °C for 30 min. Determination of lipid peroxidation products as thiobarbituric acid reactive substances (TBARS) and calculation of the IC50 values were performed as described previously.

[3] = DPPH radical scavenging assay; assay type: biochemical; details: methanol, DPPH 20 µM, 30 min; mean ± SE
Description: When reduced, the solution decolorizes in proportion to the strength and concentration of the antiradical compound tested. The results of this test are usually expressed as the concentration of the compound that reduces 50% of the radical (IC50, Table 1). […] However, no clear relationship between the carboxylic chain length and DPPH radical scavenging activity could be established. Antiradical activity was evaluated spectrophotometrically as the ability of the substances to reduce the DPPH radical as described previously with minor modifications.

[4] = ABTS radical cation scavenging (Antioxidant Assay Kit); assay type: biochemical; details: Trolox equivalents; aqueous buffer pH 5; mean ± SE
Description: Determination of ABTS scavenging activity involves an electron-transfer reaction. […] The capacity to scavenge the radical cation (ABTS^·) was evaluated using the Antioxidant Assay Kit (CS0790, Sigma-Aldrich, Prague, Czech Republic) and expressed as Trolox equivalents (TE) from the Trolox calibration curve.

[5] = Partition coefficient (log P) in octan-1-ol/phosphate buffer pH 7.4; details: for logP: octan-1-ol / 6.6 mM phosphate buffer pH 7.4, pH 7.4; for Partition Coefficient: octan-1-ol/6.6 mM phosphate buffer pH 7.4, 25 °C, mean ± SD, triplicate
Description: The hydrophobicity of the prepared compounds was determined by the measurement of partition coefficient P in a mixture of two immiscible phases—octan-1-ol and 6.6 mM phosphate buffer pH 7.4 to simulate physiological conditions. Before the use, octan-1-ol was stirred with the buffer for 16 h at 25 °C to achieve saturation of both phases, which were then separated.
Then, 150 µL of the stock solutions were mixed with 150 µL of the respective immiscible phase in microcentrifuge tubes (1.5 mL) and stirred (750 rpm) for 2 h at 25 °C in triplicates. Phases were separated and the solute concentration in each phase was determined in 96-well microtitration plates using Sunrise™ spectrophotometer (Schoeller Instruments, Prague, Czech Republic) at 400 nm. Log P was calculated as follows: log Poct/buffer = log([A]octan-1-ol/[A]buffer).

Molecule | IC50 [2] | IC50 [3] | logP [5] | Partition Coefficient [5] | fold more active than IQ in inhibition of microsomal lipid peroxidation ([2]; ratio of Lpx IC50 values relative to IQ (1)) | FCR (GAE) [1] | FCR (GAE) ([1]; listed as quercetin) | IC50 ([2]; listed as quercetin) | ABTS (TE) [4] | log P ([5]; pH 7.4)
quercetin [reference compound] | 29.8 ± 0.6 µM | 3.78 ± 0.15 µM | – | – | – | 2.80 ± 0.16 GAE | 2.80 GAE | 30 µM | 2.14 ± 0.10 ^i TE | –
((2R,3S,4R,5R,6S)-3-Acetoxy-6-((2-(3,4-dihydroxyphenyl)-5,7-dihydroxy-4-oxo-4H-chromen-3-yl)oxy)-4,5-dihydroxytetrahydro-2H-pyran-2-yl)methyl acetate [Compound 3] | 433 ± 19 µM | 2.15 ± 0.04 µM | – | – | – | 1.67 ± 0.11 ^b GAE | – | – | 1.56 ± 0.04 TE | 1.59
O=c1c(O)c(-c2ccc(O)c(O)c2)oc2cc(O)cc(O)c12 [Quercetin, quercetin, reference compound] | – | – | – | 86.27 ± 0.02 | – | – | – | – | – | –
C[C@@H]1O[C@@H](OC[C@H]2O[C@@H](Oc3c(-c4ccc(O)c(O)c4)oc4cc(O)cc(O)c4c3=O)[C@H](O)[C@@H](O)[C@@H]2O)[C@H](O)[C@H](O)[C@H]1O [Rutin, quercetin-3-O-[α-L-rhamnopyranosyl-(1→6)-β-D-glucopyranose], reference compound] | 202 ± 8 µM | 3.66 ± 0.39 µM | – | 0.41 ± 0.01 | – | 2.19 ± 0.10 GAE | – | – | 1.79 ± 0.09 TE | –
O=C(O)CCCCC(=O)OC[C@H]1O[C@@H](Oc2c(-c3ccc(O)c(O)c3)oc3cc(O)cc(O)c3c2=O)[C@H](O)[C@@H](O)[C@@H]1O [Compound 10, 6-(((2R,3S,4S,5R,6S)-6-((2-(3,4-Dihydroxyphenyl)-5,7-dihydroxy-4-oxo-4H-chromen-3-yl)oxy)-3,4,5-trihydroxytetrahydro-2H-pyran-2-yl)methoxy)-6-oxohexanoic acid] | 250 ± 19 µM | 2.19 ± 0.12 µM | -1 | 0.10 ± 0.01 | – | 1.46 ± 0.14 ^b GAE | – | – | 2.12 ± 0.10 ^i TE | –
O=C(O)CCCCCCCCCCC(=O)OC[C@H]1O[C@@H](Oc2c(-c3ccc(O)c(O)c3)oc3cc(O)cc(O)c3c2=O)[C@H](O)[C@@H](O)[C@@H]1O [Compound 11, 12-(((2R,3S,4S,5R,6S)-6-((2-(3,4-Dihydroxyphenyl)-5,7-dihydroxy-4-oxo-4H-chromen-3-yl)oxy)-3,4,5-trihydroxytetrahydro-2H-pyran-2-yl)methoxy)-12-oxododecanoic acid] | 33 µM and 32.5 µM | 2.97 ± 0.22 µM | 0.48 | 3.00 ± 0.03 | – | 1.58 GAE and 1.58 ± 0.05 ^b GAE | – | – | 2.16 ± 0.08 ^i TE | –
CCCCCCCCCCCCCCCC(=O)OC[C@H]1O[C@@H](Oc2c(-c3ccc(O)c(O)c3)oc3cc(O)cc(O)c3c2=O)[C@H](O)[C@@H](O)[C@@H]1O [Compound 8, ((2R,3S,4S,5R,6S)-6-((2-(3,4-Dihydroxyphenyl)-5,7-dihydroxy-4-oxo-4H-chromen-3-yl)oxy)-3,4,5-trihydroxytetrahydro-2H-pyran-2-yl)methyl palmitate] | 1090 ± 36 µM | 2.23 ± 0.03 µM | – | – | – | 0.76 GAE and 0.76 ± 0.03 ^c GAE | – | – | 1.0 TE and 1.00 ± 0.06 ^j TE | –
CCCCCCCCCCCC(=O)OC[C@H]1O[C@@H](Oc2c(-c3ccc(O)c(O)c3)oc3cc(O)cc(O)c3c2=O)[C@H](O)[C@@H](O)[C@@H]1O [Compound 7, ((2R,3S,4S,5R,6S)-6-((2-(3,4-Dihydroxyphenyl)-5,7-dihydroxy-4-oxo-4H-chromen-3-yl)oxy)-3,4,5-trihydroxytetrahydro-2H-pyran-2-yl)methyl dodecanoate] | 432 ± 24 µM | 1.58 ± 0.05 µM | – | – | – | 0.63 GAE and 0.63 ± 0.07 ^c GAE | – | – | 1.06 ± 0.09 ^j TE | –

Continued, in another order:

IC50 [2] | IC50 [3] | logP [5] | Partition Coefficient [5] | fold more active than IQ in inhibition of microsomal lipid peroxidation ([2]; ratio of Lpx IC50 values relative to IQ (1)) | Molecule | FCR (GAE) [1] | FCR (GAE) ([1]; listed as quercetin) | IC50 ([2]; listed as quercetin) | ABTS (TE) [4] | log P ([5]; pH 7.4)
24.1 ± 0.8 µM | 2.51 ± 0.17 µM | 1.96 | 90.64 ± 0.03 | – | CCCC(=O)OC[C@H]1O[C@@H](Oc2c(-c3ccc(O)c(O)c3)oc3cc(O)cc(O)c3c2=O)[C@H](O)[C@@H](O)[C@@H]1O [Compound 4, ((2R,3S,4S,5R,6S)-6-((2-(3,4-Dihydroxyphenyl)-5,7-dihydroxy-4-oxo-4H-chromen-3-yl)oxy)-3,4,5-trihydroxytetrahydro-2H-pyran-2-yl)methyl butyrate] | 1.72 ± 0.03 ^a GAE | – | – | 2.16 ± 0.08 ^i TE | –
42 ± 2.1 µM | 2.51 ± 0.1 µM | 1.14 | 13.76 ± 0.01 | 23 × | CC(=O)OC[C@H]1O[C@@H](Oc2c(-c3ccc(O)c(O)c3)oc3cc(O)cc(O)c3c2=O)[C@H](O)[C@@H](O)[C@@H]1O [Compound 2, ((2R,3S,4S,5R,6S)-6-((2-(3,4-Dihydroxyphenyl)-5,7-dihydroxy-4-oxo-4H-chromen-3-yl)oxy)-3,4,5-trihydroxytetrahydro-2H-pyran-2-yl)methyl acetate] | 1.63 ± 0.07 ^b GAE | – | – | 2.04 ± 0.07 ^i TE | –
20 µM and 19.7 µM | 3.07 ± 0.1 µM | 2.1 | 126.43 ± 0.01 | – | CCCCCC(=O)OC[C@H]1O[C@@H](Oc2c(-c3ccc(O)c(O)c3)oc3cc(O)cc(O)c3c2=O)[C@H](O)[C@@H](O)[C@@H]1O [Compound 5, ((2R,3S,4S,5R,6S)-6-((2-(3,4-Dihydroxyphenyl)-5,7-dihydroxy-4-oxo-4H-chromen-3-yl)oxy)-3,4,5-trihydroxytetrahydro-2H-pyran-2-yl)methyl hexanoate] | 1.48 ± 0.05 ^b GAE | – | – | 2.11 ± 0.09 ^i TE | –
1340 ± 54 µM | 1.77 ± 0.06 µM | -1.15 | 0.07 ± 0.01 | – | O=C(O)CCCC(=O)OC[C@H]1O[C@@H](Oc2c(-c3ccc(O)c(O)c3)oc3cc(O)cc(O)c3c2=O)[C@H](O)[C@@H](O)[C@@H]1O [Compound 9, 6-(((2R,3S,4S,5R,6S)-6-((2-(3,4-Dihydroxyphenyl)-5,7-dihydroxy-4-oxo-4H-chromen-3-yl)oxy)-3,4,5-trihydroxytetrahydro-2H-pyran-2-yl)methoxy)-6-oxopentanoic acid] | 1.84 ± 0.05 ^a GAE | – | – | 2.13 ± 0.08 ^i TE | –
186 ± 3 µM | 2.23 ± 0.08 µM | – | – | – | CCCCCCCC(=O)OC[C@H]1O[C@@H](Oc2c(-c3ccc(O)c(O)c3)oc3cc(O)cc(O)c3c2=O)[C@H](O)[C@@H](O)[C@@H]1O [Compound 6, ((2R,3S,4S,5R,6S)-6-((2-(3,4-Dihydroxyphenyl)-5,7-dihydroxy-4-oxo-4H-chromen-3-yl)oxy)-3,4,5-trihydroxytetrahydro-2H-pyran-2-yl)methyl octanoate] | 1.47 ± 0.10 ^b GAE | – | – | 1.28 ± 0.07 TE | –
